The text below walks through data of patent US6589967B1, “Oxime O-ether compounds and fungicides for agricultural and horticultural use” (Nippon Soda Co. Ltd., priority 1999, dated 2003).

This assay has as its system snap bean gray mold fungus (Botrytis cinerea). The assay is described as follows: Test on Kidney Bean Gray Mold Control. Particulars: 50 ppm active ingredient, cut Kidney bean flowers (Nagauzura) dipped, spores sprayed, placed on detached leaves, 7 days at 20° C., high humidity. Format: in vivo. The method, then:
Now, explanation is made on how the compounds according to the present invention are effective as an active ingredient of a fungicide for controlling various plant diseases with reference to Test examples described later. In the Test Examples, the control efficacy is determined by visually checking the infested state of the test plants at the time of observation, namely, checking the damage to the host plants and the developing state of the disease-causing fungus appeared on leaves, stems, etc. of the test plants, compared to the control test plants which are healthy. Flowers of Kidney bean (variety; Nagauzura) grown in a flat vessel for culturing seedlings are cut, and the cut flowers were dipped into a solution prepared by diluting the emulsifiable concentrate prepared for the compound of the present invention at a concentration of 50 ppm based on the active ingredient. After the dipping, the flowers were dried at a room temperature. Then, spore solution of snap bean gray mold fungus (Botrytis cinerea) was sprayed to the flowers. The flowers sprayed with spores of the gray mold fungus were placed on the leaves which were detached from healthy Kidney bean plants, and those leaves were placed in a room being maintained at 20° C. and high humidity with repeated lighting of 12 hours intervals, and the Kidney bean leaves were incubated in the room for 7 days. Then, the infestation degree by the fungus on the leaves was checked in comparison to the control healthy leaves to determine the control efficacy. […] Note that the compound numbers in the following correspond to the same compound numbers in the Table 1. Compound Nos. 1, 3, 6, 7, 11, 12, 13, 14, 15, 18, 20, 21, 22, 23, 25, 26, 27, 29, 36, 48, 49, 192, 194, 195, 196, 198, 201, 203, 204, 207, 208, 209, 210, 213, 216, 219, 220, 222, 223, 224, 225, 227, 228, 229, 231, 233, 234, 235, 236, 237, 239, 240, 242

Regarding `COc1cccc(OC)c1C(C)ON=Cc1cc(C)cc(C)n1` (racemic) [compound 239], the “control performance (control efficacy)” value was “excellent control performance”. Take `COc1cccc(F)c1CON=C(C)c1cc(C)cc(C)n1` [Compound No. 1, 1-(4,6-Dimethyl-2-pyridinyl)ethanone O-[(2-Fluoro-6-methoxyphenyl)methyl]oxime]: the “control performance (control efficacy)” value is “excellent control performance”.

On to `COc1cccc(C)c1CON=C(C)c1cc(C)cc(C)n1` [Compound No. 7, 1-(4,6-Dimethyl-2-pyridinyl)ethanone O-[(2-Methoxy-6-methylphenyl)methyl] Oxime], for which the “control performance (control efficacy)” value is “excellent control performance”. As for `COc1ccc(CON=C(C)c2cc(C)cc(C)n2)c(OC)c1` [Compound No. 13, 1-(4,6-Dimethyl-2-pyridinyl)ethanone O-[(2,4-Dimethoxyphenyl)methyl] Oxime], the “control performance (control efficacy)” value was “excellent control performance”. Next, `COc1cccc(OC)c1CON=C(C)c1cc(Cl)cc(C)n1` [Compound No. 18, 1-(4-Chloro-6-methyl-2-pyridinyl)ethanone O-[(2,6-Dimethoxyphenyl)methyl] Oxime]: “excellent control performance”. Next, `CCC(=NOCc1c(OC)cccc1OC)c1cc(C)cc(C)n1` [Compound No. 20]: “excellent control performance”. In the case of `COc1ccc(O)c(CON=C(C)c2cc(C)cc(C)n2)c1` [Compound No. 21], the “control performance (control efficacy)” value was “excellent control performance”. For the compound `COc1ccc(OC)c(CON=C(C)c2cc(C)cc(C)n2)c1` [Compound No. 22], the “control performance (control efficacy)” value is recorded as “excellent control performance”. To `COCOc1cccc(OC)c1CON=C(C)c1cc(C)cc(C)n1` [Compound No. 23] belongs “excellent control performance”. Turning to `COc1cccc(CON=C(C)c2cc(C)cc(C)n2)c1O` [Compound No. 25, 1-(4,6-Dimethyl-2-pyridinyl)ethanone O-[(2-hydroxy-3-methoxyphenyl)methyl] Oxime], the “control performance (control efficacy)” value is listed as “excellent control performance”. To `COc1cccc(OC)c1CON=Cc1cc(C)cc(C)n1` [Compound No. 196, 4,6-Dimethyl-2-pyridinecarboxyaldehyde O-[(2,6-Dimethoxyphenyl)methyl] Oxime] belongs “excellent control performance”. To `COc1cccc(OC)c1CON=Cc1cc(Cl)cc(C)n1` [Compound No. 219, 4-Chloro-6-methyl-2-pyridinecarboxyaldehyde O-[(2,6-Dimethoxyphenyl)methyl] Oxime] belongs “excellent control performance”; to `COc1cccc(N)c1CON=Cc1cc(C)cc(C)n1` [Compound No. 222, 4,6-Dimethyl-2-pyridinecarboxyaldehyde O-[(2-Methoxy-6-aminophenyl)methyl] Oxime], “excellent control performance”.

With `CNc1cccc(OC)c1CON=Cc1cc(C)cc(C)n1` [Compound No. 223, 4,6-Dimethyl-2-pyridinecarboxyaldehyde O-[(2-Methoxy-6-methylaminophenyl)methyl] Oxime], the “control performance (control efficacy)” value is “excellent control performance”. To `COc1cccc(N(C)C)c1CON=Cc1cc(C)cc(C)n1` [Compound No. 225, 4,6-dimethyl-2-pyridinecarboxyaldehyde O-[(2-methoxy-6-dimethylaminophenyl)methyl] oxime] belongs “excellent control performance”; to `COc1cc(OC)c(CON=Cc2cc(C)cc(C)n2)c(OC)c1` [Compound No. 233, 4,6-Dimethyl-2-pyridinecarboxyaldehyde O-[(2,4,6-Trimethoxyphenyl)methyl]oxime], “excellent control performance”; to `COc1cccc(Br)c1CON=Cc1cc(C)cc(C)n1` [Compound No. 234, 4,6-Dimethyl-2-pyridinecarboxyaldehyde O-[(2-Methoxy-6-bromophenyl)methyl]oxime], “excellent control performance”. To `C#Cc1cccc(OC)c1CON=Cc1cc(C)cc(C)n1` [Compound No. 235, 4,6-Dimethyl-2-pyridinecarboxyaldehyde O-[(2-Methoxy-6-ethynylphenyl)methyl]oxime] belongs “excellent control performance”; to `COc1ccc(Cl)c(OC)c1CON=C(C)c1cc(C)cc(C)n1` [compound 3], “excellent control performance”. Next, `COCOc1cc(OC)ccc1CON=C(C)c1cc(C)cc(C)n1` [compound 6]: “excellent control performance”. With `COc1cccc(OC)c1C(C)ON=C(C)c1cc(C)cc(C)n1` (stereo not drawn) [compound 11], the “control performance (control efficacy)” value was “excellent control performance”. For `COCOc1ccc(OC)cc1CON=C(C)c1cc(C)cc(C)n1` [compound 12], the “control performance (control efficacy)” value is listed as “excellent control performance”. Consider `COc1ccc(CON=C(C)c2cc(C)cc(C)n2)c(O)c1` [compound 14], for which the “control performance (control efficacy)” value is recorded as “excellent control performance”. Next, `COc1cc(C)ccc1CON=C(C)c1cc(C)cc(C)n1` [compound 15]: “excellent control performance”; `COc1ccc(C)cc1CON=C(C)c1cc(C)cc(C)n1` [compound 26]: “excellent control performance”; `CCc1cccc(OC)c1CON=C(C)c1cc(C)cc(C)n1` [compound 27]: “excellent control performance”. Consider `COc1cccc(Cl)c1CON=C(C)c1cc(C)cc(C)n1` [compound 29], for which the “control performance (control efficacy)” value is recorded as “excellent control performance”. To `COc1cccc(C)c1CON=C(C)c1cc(C)ccn1` [compound 36] belongs “excellent control performance”; to `COc1ccc(F)c(OC)c1CON=Cc1cc(C)cc(C)n1` [compound 48], “excellent control performance”; to `CC(=NOCc1ccc(C)cc1O)c1cc(C)cc(C)n1` [compound 49], “excellent control performance”. To `COCOc1cc(C)ccc1CON=C(C)c1cc(C)cc(C)n1` [compound 192] belongs “excellent control performance”; to `COCOc1c(C)cccc1CON=C(C)c1cc(C)cc(C)n1` [compound 194], “excellent control performance”. Regarding `COc1cccc(OC)c1CON=C(C)c1cc(C)cc(C)n1` [compound 195], the “control performance (control efficacy)” value is on record as “excellent control performance”.

Turning to `COc1ccc(F)c(F)c1CON=C(C)c1cc(C)cc(C)n1` [compound 198], the “control performance (control efficacy)” value was “excellent control performance”. Turning to `COc1c(F)ccc(F)c1CON=C(C)c1cc(C)cc(C)n1` [compound 201], the “control performance (control efficacy)” value is “excellent control performance”. `COc1cccc(C)c1CON=Cc1cc(C)cc(C)n1` [compound 203]: the “control performance (control efficacy)” value is listed as “excellent control performance”. To `COc1cccc(F)c1CON=Cc1cc(C)cc(C)n1` [compound 204] belongs “excellent control performance”; to `COc1cccc(CON=C(C)c2cc(C)cc(C)n2)c1OC(C)=O` [compound 207], “excellent control performance”.

As for `COc1cc(C)cc(OC)c1CON=Cc1cc(C)cc(C)n1` [compound 208], the “control performance (control efficacy)” value is “excellent control performance”.

For `COc1cc(C)cc(OC)c1CON=C(C)c1cc(C)cc(C)n1` [compound 209], the “control performance (control efficacy)” value is given as “excellent control performance”. With `C=Cc1cccc(OC)c1CON=Cc1cc(C)cc(C)n1` [compound 210], the “control performance (control efficacy)” value is reported as “excellent control performance”.

With `COc1cc(Cl)cc(OC)c1CON=Cc1cc(C)cc(C)n1` [compound 213], the “control performance (control efficacy)” value is “excellent control performance”. Next, `COc1cc(F)cc(OC)c1CON=Cc1cc(C)cc(C)n1` [compound 216]: “excellent control performance”; `COc1cccc(F)c1CON=Cc1cc(Cl)cc(C)n1` [compound 220]: “excellent control performance”; `COc1cc(F)c(CON=Cc2cc(C)cc(C)n2)c(OC)c1` [compound 224]: “excellent control performance”.

As for `COc1cccc(OC(C)=O)c1CON=Cc1cc(C)cc(C)n1` [compound 227], the “control performance (control efficacy)” value was “excellent control performance”.

For `COc1cccc(OC)c1CON=Cc1cccc(C)n1` [compound 228], the “control performance (control efficacy)” value is “excellent control performance”.

Regarding `COc1cccc(OC)c1CON=Cc1cc(Br)cc(C)n1` [compound 229], the “control performance (control efficacy)” value was “excellent control performance”.
